In brackets after ≈: the same amount, converted by molar mass. Read-outs that look alike come from different tables or passages of the source.
Columns and labels:
Mtb H37Ra^lux = assay: microbe, parasite or virus in culture; assay type: cell-based, Mycobacterium tuberculosis; conditions: for MIC50: Mycobacterium tuberculosis, H37RA
[1] = RAW264.7 cytotoxicity (CellTiter-Glo); assay type: cell-based, murine; conditions: mouse, RAW264.7 macrophage-like cells
Procedure: The RAW264.7 cell line was cultured in DMEM supplemented with 10% FBS, 2-mM L-glutamine, 100-U/mL penicillin and 100-µg/mL streptomycin at 37°C and 5% CO2. Cells were seeded on black, clear-bottom 96-well plates at 2.5 × 10^5 cells/mL. Test compounds and reference compounds (BDQ and tamoxifen) were added in nine twofold serial dilutions in 100% DMSO with a top concentration of 25 µM. The plate setup included high (no growth inhibition) and low (100% growth inhibition) controls in columns 12 and 1, respectively. Medium without cell suspension was added to the low control wells. Final DMSO concentration reached 1% for test and control wells. Plates were incubated for 60 hours at 37°C and 5% CO2. Before adding the readout reagent, plates were equilibrated at room temperature for 30 min. The CellTiter-Glo version 2.0 Assay (Promega, cat. #G7572) was then added to test wells in a 1:1 ratio and mixed for 2 min on an orbital shaker. The plate was incubated for 10 min at RT to stabilize the luminescent signal. The luminescence was recorded using Glomax Discover microplate reader (Promega). Cell viability was determined by normalization of the recorded signal and establishment of the 50% cytotoxicity concentration based on the non-linear regression curve analysis (GraphPad Prism version 9). The assay was performed in duplicate in two independent experiments.

[2] = target: Mycobacterium tuberculosis mycothione reductase (MtrMtb) (Mycobacterium tuberculosis, UniProt P9WHH3); assay: MtrMtb luminescence-coupled enzymatic assay, confirmation screen (11-point dose-response); assay type: biochemical
Sequence of Mycobacterium tuberculosis mycothione reductase (MtrMtb) (P9WHH3 whole entry): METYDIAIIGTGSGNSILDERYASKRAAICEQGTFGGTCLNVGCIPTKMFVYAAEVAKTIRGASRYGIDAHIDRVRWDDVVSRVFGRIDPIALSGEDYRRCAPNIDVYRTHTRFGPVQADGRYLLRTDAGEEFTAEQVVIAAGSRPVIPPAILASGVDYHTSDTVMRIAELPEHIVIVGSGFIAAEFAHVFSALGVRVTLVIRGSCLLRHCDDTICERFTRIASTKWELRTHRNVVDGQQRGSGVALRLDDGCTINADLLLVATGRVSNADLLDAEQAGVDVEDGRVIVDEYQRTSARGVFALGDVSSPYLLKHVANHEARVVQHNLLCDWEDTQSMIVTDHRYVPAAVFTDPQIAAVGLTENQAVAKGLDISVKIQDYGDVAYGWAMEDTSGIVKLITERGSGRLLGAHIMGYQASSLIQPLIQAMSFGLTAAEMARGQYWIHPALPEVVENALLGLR

[3] = test system: Mtb H37Ra^lux in RAW264.7 murine macrophages; assay: microbe, parasite or virus in culture; assay type: cell-based, Mycobacterium tuberculosis; conditions: for MIC50: Mycobacterium tuberculosis, H37RA, 60 h
[4] = read-out: MIC50 (µM) Mtb H37Ra^lux
[5] = sulfonylamine series, fragment molecules, reference compounds
[6] = sulfonylamine series, fragment molecules, reference compounds, read-out: IC50 (µM) MtrMtb
[7] = read-out: RAW264.7 MIC50 (µM) (Mtb H37Ra^lux)
[8] = morpholine series, average IC50 in the confirmation screen (dose-response), unit not in this head, µM, read-out: qIC50 (MtrMtb)
[9] = read-out: MIC50 (Mtb H37Ra^lux)
[10] = read-out: RAW264.7 MIC50 (Mtb H37Ra^lux)
[11] = morpholine series, acute cellular toxicity, unit not in this head

With `COc1nc2ccc(Br)cc2cc1[C@@H](c1ccccc1)[C@@](O)(CCN(C)C)c1cccc2ccccc12` [Bedaquiline, reference compound] the MIC50 (Mtb H37Ra^lux; [4]) was 0.01 µM (≈ 0.00556 µg/mL) and the CC50 at 60 h [1, 5] was > 50 µM.

With `Cc1ccn(-c2ncccn2)c(=O)c1C#N` [Respiri-1211] the IC50 [2, 6] was 13 µM, the MIC50 (Mtb H37Ra^lux; [4]) was > 25 µM and the MIC50 [3, 7] was > 25 µM. For the same compound, the CC50 at 60 h [1, 5] was > 50 µM.

With `Cn1ccnc1C(=O)c1nccn1C` [Respiri-1210] the IC50 [2, 6] was 6.11 µM, the MIC50 (Mtb H37Ra^lux; [4]) was > 25 µM and the MIC50 [3, 7] was > 25 µM. The CC50 at 60 h [1, 5] was > 50 µM.

`CC/C(=C(\c1ccccc1)c1ccc(OCCN(C)C)cc1)c1ccccc1` [Tamoxifen, reference compound] showed a CC50 at 60 h [1, 5] of 4.54 µM.

With `C[C@H]1COCCN1c1nc2c(c(-c3ccnc4ccccc34)n1)CCNCC2` [Respiri-1083] the IC50 [2, 8] was 2.34 µM, the MIC50 (Mtb H37Ra^lux; [9]) was > 25 µM and the MIC50 [3, 10] was > 25 µM. For the same compound, the CC50 at 60 h [1, 11] was > 25 µM.

With `CCNc1cc(Oc2ccc(NS(=O)(=O)c3ccc(C)cc3)c(C(=O)O)c2)ccc1NS(=O)(=O)c1ccc(C)cc1` [Respiri-1031] the IC50 [2, 6] was 2.16 µM, the MIC50 (Mtb H37Ra^lux; [4]) was > 25 µM and the MIC50 [3, 7] was > 25 µM.

With `C[C@H]1COCCN1c1nc2c(c(-c3ccc4c(c3)OCO4)n1)CCNCC2` [Respiri-1080] the IC50 [2, 8] was 5.98 µM, the MIC50 (Mtb H37Ra^lux; [9]) was > 25 µM and the MIC50 [3, 10] was > 25 µM. For the same compound, the CC50 at 60 h [1, 11] was > 5 µM.

For `O=C1C=CC(=O)N1Cc1ccc2c(c1)OCO2` [Respiri-1208], the IC50 [2, 6] was 4.83 µM, the MIC50 (Mtb H37Ra^lux; [4]) was > 25 µM and the CC50 at 60 h [1, 5] was 15.2 µM.

In the case of `COc1cccc(-c2nc(N3CCOC[C@@H]3C)nc3c2CCNCC3)c1` [Respiri-1076], the MIC50 (Mtb H37Ra^lux; [9]) is reported as > 25 µM, the MIC50 [3, 10] is reported as > 25 µM and the CC50 at 60 h [1, 11] is reported as > 25 µM.

In the case of `C[C@H]1COCCN1c1nc2c(c(-c3cc4ccccc4o3)n1)CCNCC2` [Respiri-1079], the IC50 [2, 8] is reported as 1.99 µM, the “anti-mycobacterial activity in whole-cell assay (Mtb H37Ra^lux MIC50), in words” value (shortened to “anti-mycobacterial activity”) (Mtb H37Ra^lux) is reported as “activity” and the MIC50 (Mtb H37Ra^lux; [9]) is reported as 5.7 µM (≈ 2.08 µg/mL). For the same compound, the “intracellular activity in macrophage infection assay, in words” value (“intracellular activity” below) [3] was “Intracellular activity was detected”, the MIC50 [3, 10] was 12.2 µM (≈ 4.44 µg/mL) and the CC50 at 60 h [1, 11] was 11 µM.

With `C[C@H]1COCCN1c1nc2c(c(-c3csc4ccccc34)n1)CCNCC2` [Respiri-1093] the IC50 [2, 8] was 6.22 µM, the “anti-mycobacterial activity” value (Mtb H37Ra^lux) was “activity” and the MIC50 (Mtb H37Ra^lux; [9]) was 9.94 µM (≈ 3.78 µg/mL). For the same compound, the MIC50 [3, 10] was > 25 µM and the CC50 at 60 h [1, 11] was > 25 µM.

With `CCN(CC)c1cc(Oc2ccc(NS(=O)(=O)c3ccc(C)cc3)c(C(=O)O)c2)ccc1NS(=O)(=O)c1ccc(C)cc1` [Respiri-1180] the IC50 [2, 6] was 2.38 µM, the MIC50 (Mtb H37Ra^lux; [4]) was > 25 µM and the CC50 at 60 h [1, 5] was > 50 µM.

In the case of `CN1C(=O)C2N=CNC2N(C)C1=O` (centres unmarked) [Respiri-1209], the IC50 [2, 6] is reported as 5.63 µM, the MIC50 (Mtb H37Ra^lux; [4]) is reported as > 25 µM and the MIC50 [3, 7] is reported as > 25 µM. For the same compound, the CC50 at 60 h [1, 5] was > 50 µM.

With `C[C@H]1COCCN1c1nc2c(c(-c3ccc4ccccc4c3)n1)CCNCC2` [Respiri-1082] the IC50 [2, 8] was 3.03 µM, the “anti-mycobacterial activity” value (Mtb H37Ra^lux) was “activity” and the MIC50 (Mtb H37Ra^lux; [9]) was 4.02 µM (≈ 1.51 µg/mL). For the same compound, the “intracellular activity” value [3] was “Intracellular activity was detected”, the MIC50 [3, 10] was 7.16 µM (≈ 2.68 µg/mL) and the CC50 at 60 h [1, 11] was 9.69 µM.

For `CCCNc1cc(Oc2ccc(NS(=O)(=O)c3ccc(C)cc3)c(C(=O)O)c2)ccc1NS(=O)(=O)c1ccc(C)cc1` [Respiri-1179], the IC50 [2, 6] was 1.13 µM, the MIC50 (Mtb H37Ra^lux; [4]) was > 25 µM and the MIC50 [3, 7] was > 25 µM. The CC50 at 60 h [1, 5] was > 50 µM.

For `C[C@H]1COCCN1c1nc2c(c(-c3ccc4ncccc4c3)n1)CCNCC2` [Respiri-1081], the IC50 [2, 8] was 3.75 µM, the MIC50 (Mtb H37Ra^lux; [9]) was > 25 µM and the MIC50 [3, 10] was > 25 µM. For the same compound, the CC50 at 60 h [1, 11] was > 25 µM.

In the case of `CCCCNc1cc(Oc2ccc(NS(=O)(=O)c3ccc(C)cc3)c(C(=O)O)c2)ccc1NS(=O)(=O)c1ccc(C)cc1` [Respiri-1181], the IC50 [2, 6] is reported as 1.66 µM, the MIC50 (Mtb H37Ra^lux; [4]) is reported as > 25 µM and the MIC50 [3, 7] is reported as > 25 µM. The CC50 at 60 h [1, 5] was > 50 µM.

With `C[C@H]1COCCN1c1nc2c(c(-c3ccc(F)cc3)n1)CCNCC2` [Respiri-1077] the MIC50 (Mtb H37Ra^lux; [9]) was > 25 µM, the MIC50 [3, 10] was > 25 µM and the CC50 at 60 h [1, 11] was > 25 µM.

In the case of `C[C@H]1COCCN1c1nc2c(c(-c3ccc(Cl)cc3)n1)CCNCC2` [Respiri-1078], the IC50 [2, 8] is reported as 4.47 µM, the “anti-mycobacterial activity” value (Mtb H37Ra^lux) is reported as “activity” and the MIC50 (Mtb H37Ra^lux; [9]) is reported as 11.9 µM (≈ 4.26 µg/mL). The “intracellular activity” value [3] was “Intracellular activity was detected”, the MIC50 [3, 10] was 14.1 µM (≈ 5.05 µg/mL) and the CC50 at 60 h [1, 11] was 13.7 µM.

With `CNc1cc(Oc2ccc(NS(=O)(=O)c3ccc(C)cc3)c(C(=O)O)c2)ccc1NS(=O)(=O)c1ccc(C)cc1` [Respiri-1075] the MIC50 (Mtb H37Ra^lux; [4]) was > 25 µM and the MIC50 [3, 7] was > 25 µM.

For `C[C@H]1COCCN1c1cc(-c2cc3ccccc3s2)c2c(n1)CCNCC2` [Respiri-1084], the IC50 [2, 8] was 2.88 µM, the MIC50 (Mtb H37Ra^lux; [9]) was > 25 µM and the “intracellular activity” value [3] was “Intracellular activity was detected”. It also gave an MIC50 [3, 10] of 10.2 µM (≈ 3.88 µg/mL) and a CC50 at 60 h [1, 11] of 11.9 µM.

— article PMC10913476, “A high-throughput target-based screening approach for the identification and assessment of Mycobacterium tuberculosis mycothione reductase inhibitors” (Microbiology Spectrum, 2024)
